Assay results published in patent publication US7829063B2, “Development of molecular imaging probes for carbonic anhydrase-IX using click chemistry” (Siemens Medical Solutions USA, Inc., priority 2007, dated 2010).
Like-named read-outs stand apart in the source and are kept apart here.

Legend:
CA-IX [1] = biological target: T1, CA-IX (Homo sapiens, UniProt Q16790); test: Binding affinity (Kd) determination for CA-IX inhibitors, DNSA fluorescence competition assay, Scatchard plots; settings: Table 3
T1 construct: His tag (C); purchased R&D Systems Inc. 2188-CA; host or cells: mouse myeloma cell line NS0
Procedure: General. […] The human red blood cells were obtained from Research Blood Components, LLC. All absorbance measurements were performed on a SPECTRA MAX M2 plate reader at 25° C. The LC/MS analyses were performed on an Agilent 1100 series LC/MSD (SL) using a 30×2.1 mm Zorbax C8 column with a Phenomenex C18 pre-column. Compound detection was accomplished by electrospray mass spectroscopy in positive selected ion mode (LC/MS-SIM). The elution solvents were acetonitrile and water, contained 0.05% TFA. Nuclear magnetic resonance (NMR) spectra were obtained on a Bruker AMX 300 MHz spectrometer or a Varian 400. 19F NMR spectra were recorded on a Bruker AMX 282.35 MHz or a Varian 400 spectrometer. The mass spectra were recorded on an Agilent 1100 series LC/MSD with electrospray mass spectroscopic detection. Flash column chromatography was performed on Merck silica gel (40-63 μm) using the solvent system indicated. The radiochemical and chemical purities were analyzed by RP-HPLC.
General Procedure of Binding Affinity (Ka) Determination for CA-IX Inhibitors
The assay was based on the observation that the only fluorescence signal detected at 460 nm upon excitation at 290 nm, an absorption […] for DNSA, was that of the DNSA.CA complex. […] The latter were developed for each test compound using mass balance for calculating the concentration of CA bound to DNSA [DNSA.CA], bound to the non-fluorescent sample [CA.Inh] and free CA [CA] in solution. The Kd values were determined from Scatchard plots using the equation below as described by Whitesides et al. [CA.Inh]/[CA]tot.[Inh]=K11^inh−K11^inh{[CA.Inh]+[CA.DNSA]}/([CA]tot)
The terms [CA.DNSA], [CA.Inh], and free CA were calculated using the mass balance based on the known values for the dissociation constant of CA.DNSA and the total concentration of CA in each reaction.

CA-IX [2] = biological target: T1, CA-IX; test: CA-IX combinatorial library screening, competitive fluorescence-based assay with dansylamide (DNSA); type: binding; settings: sample concentrations 100 nM and 1000 nM, DNSA 200 μM, screening at 1 μM; for inhibition at 1 µM: 1 h
How it was run: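 Recombinant His-tagged CA-IX (NS0-expressed) in phosphate buffer pH 7.4 with test compound at 100 nM or 1000 nM; competitive displacement started with 200 μM dansylamide (stock concentration). After 1 h at 25 °C, fluorescence read at 460 nm (excitation 290 nm).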

[3] = Table 1, Libraries 1-3, read-out: In Vitro Binding Assay (Library Screening)
[4] = Table 2, Libraries 4-7, read-out: In Vitro Binding Assay (Library (Screening))

inhibition at 1 µM (CA-IX [2]; [3]) | inhibition at 1 µM (CA-IX [2]; [4]) | SMILES | other results
– | – | CC(C)[C@H](C(=O)N[C@@H](Cc1ccc(OCCF)cc1)C(=O)O)n1cc(COc2ccc3nc(S(N)(=O)=O)sc3c2)nn1 [VM4037b] | Kd (CA-IX [1]): 5 nM
– | – | Cc1cc[n+](C)c(NC(=O)[C@H](Cc2ccccc2)n2cc(-c3ccc(S(N)(=O)=O)cc3)nn2)c1 [DHK160] | Kd (CA-IX [1]): 20 nM
– | – | COC(=O)[C@H](Cc1ccc(C(F)(F)F)cc1)NC(=O)[C@H](C(C)C)n1cc(COc2ccc3nc(S(N)(=O)=O)sc3c2)nn1 [BW-96, (S)-methyl 2-((S)-3-methyl-2-(4-((2-sulfamoylbenzo[d]thiazol-6-yloxy)methyl)-1H-1,2,3-triazol-1-yl)butanamido)-3-(4-(trifluoromethyl)phenyl) propanoate] | Kd (CA-IX [1]): 1.7 nM
– | – | COC(=O)[C@H](Cc1ccc(C(F)(F)F)cc1)NC(=O)[C@H](C(C)C)n1cc(COc2ccc3nc(S(N)(=O)=O)sc3c2)nn1 [DHK2-129] | Kd (CA-IX [1]): 1.2 nM
– | – | CC(C)[C@@H](C(=O)N[C@@H](Cc1ccc(C(F)(F)F)cc1)C(=O)O)n1cc(COc2ccc3nc(S(N)(=O)=O)sc3c2)nn1 [DHK2-132] | Kd (CA-IX [1]): 0.5 nM
– | – | CC(C)[C@@H](C(=O)N[C@@H](Cc1ccc(OCCO)cc1)C(=O)O)n1cc(COc2ccc3nc(S(N)(=O)=O)sc3c2)nn1 [VM4021, (S)-3-(4-(2-hydroxyethoxy)phenyl)-2-((S)-3-methyl-2-(4-((2-sulfamoylbenzo[d]thiazol-6-yloxy)methyl)-1H-1,2,3-triazol-1-yl)butanamido)propanoic acid] | Kd (CA-IX [1]): 3.3 nM
< 40% | – | CC(C)[C@@H](C(=O)NCCc1ccsc1)n1cc(CNC(=O)c2ccc(S(N)(=O)=O)cc2)nn1 [DHK91] | –
< 40% | – | CC(C)C(C(=O)NCc1cc(F)ccc1F)n1cc(CNC(=O)c2ccc(S(N)(=O)=O)cc2)nn1 (stereo not shown) [DHK40] | –
– | < 40% | CC(C)[C@@H](C(=O)NCCSCc1ccc(CN(C)C)o1)n1cc(COc2ccc3nc(S(N)(=O)=O)sc3c2)nn1 [DHK-2-27] | –
< 40% | – | NS(=O)(=O)c1ccc(-c2cn(C3CCN(C(=O)/C=C/c4ccccc4)CC3)nn2)cc1 [DHK82] | –
< 40% | – | NS(=O)(=O)c1ccc(C(=O)NCc2cn(Cn3c(=S)sc4ccccc43)nn2)cc1 [DHK48] | –
< 40% | – | NS(=O)(=O)c1ccc(-c2cn(CC(O)CN3C(=O)c4ccccc4C3=O)nn2)cc1 (stereo not shown) [DHK8] | –
– | – | CC(C)[C@@H](C(=O)NCC1COc2ccccc2O1)n1cc(COc2ccc3nc(S(N)(=O)=O)sc3c2)nn1 (stereo partly shown) [DHK-2-44] | In Vitro Binding Assay (Library Screening) (CA-IX [2]; Table 2, Libraries 4-7): √
< 40% | – | NS(=O)(=O)c1ccc(C(=O)NCc2cn(CCCCCCO)nn2)cc1 [DHK88] | –
– | < 40% | NS(=O)(=O)c1ccc(-c2cn([C@@H](Cc3ccccc3)C(=O)N3CCN(c4ccccn4)CC3)nn2)cc1 [DHK-2-7] | –
< 40% | – | NCCCn1cc(CNC(=O)c2ccc(S(N)(=O)=O)cc2)nn1 [DHK95] | –
– | < 40% | COC(=O)[C@H](C)NC(=O)[C@H](Cc1ccccc1)n1cc(-c2ccc(S(N)(=O)=O)cc2)nn1 [DHK-2-10] | –
– | < 40% | CC(C)[C@@H](C(=O)NCc1ccc(F)cc1)n1cc(-c2ccc(S(N)(=O)=O)cc2)nn1 [DHK165] | –
< 40% | – | CCOC(=O)c1ccc(Cn2cc(-c3ccc(S(N)(=O)=O)cc3)nn2)cc1 [DHK22] | –
< 40% | – | NS(=O)(=O)c1ccc(-c2cn(-c3ccnc4cc(Cl)ccc34)nn2)cc1 [DHK71] | –
– | < 40% | CCOC(=O)C(Cc1ccccc1)NC(=O)[C@H](C(C)C)n1cc(COc2ccc3nc(S(N)(=O)=O)sc3c2)nn1 (stereo partly shown) [DHK-2-32] | –
< 40% | – | NS(=O)(=O)c1ccc(-c2cn(CCn3c(=O)[nH]c4ccccc4c3=O)nn2)cc1 [DHK78] | –
< 40% | – | CCCOC(=O)c1ccc(NC(=O)Cn2cc(CNC(=O)c3ccc(S(N)(=O)=O)cc3)nn2)cc1 [DHK57] | –
– | < 40% | CC(C)[C@@H](C(=O)NCc1nc2ccccc2n1C)n1cc(-c2ccc(S(N)(=O)=O)cc2)nn1 [DHK189] | –
< 40% | – | CC1CCCN(C(=O)C(C(C)C)n2cc(-c3ccc(S(N)(=O)=O)cc3)nn2)C1 (stereo not shown) [DHK15] | –
< 40% | – | Cc1cc(NC(=O)Cn2cc(-c3ccc(S(N)(=O)=O)cc3)nn2)n(C)n1 [DHK26] | –
– | < 40% | NS(=O)(=O)c1nc2ccc(OCc3cn([C@@H](Cc4ccccc4)C(=O)N4CCC(N5CCCC5)CC4)nn3)cc2s1 [DHK-2-72] | –

inhibition at 1 µM (CA-IX [2]; [3]) | inhibition at 1 µM (CA-IX [2]; [4]) | SMILES | other results
< 40% | – | NS(=O)(=O)c1ccc(C(=O)NCc2cn(CCN3CCOCC3)nn2)cc1 [DHK34] | –
< 40% | – | CC(C)[C@@H](C(=O)O)n1cc(CNC(=O)c2ccc(S(N)(=O)=O)cc2)nn1 [DHK60] | –
– | < 40% | CCOC(=O)C1CCN(C(=O)[C@H](C(C)C)n2cc(-c3ccc(S(N)(=O)=O)cc3)nn2)CC1 [DHK184] | –
< 40% | – | NS(=O)(=O)c1nc2ccc(OCc3cn(CCN4CCOCC4)nn3)cc2s1 [DHK114] | –
< 40% | – | CC(C)C[C@@H](C(=O)NCc1ccccc1)n1cc(CNC(=O)c2ccc(S(N)(=O)=O)cc2)nn1 [DHK41] | –
– | < 40% | NS(=O)(=O)c1ccc(-c2cn([C@@H](Cc3ccccc3)C(=O)NCc3ccc(F)cc3)nn2)cc1 [DHK-2-1] | –
– | – | NS(=O)(=O)c1nc2ccc(OCc3cn([C@@H](Cc4ccccc4)C(=O)NCc4ccc(C(F)(F)F)cc4)nn3)cc2s1 [DHK-2-51] | In Vitro Binding Assay (Library Screening) (CA-IX [2]; Table 2, Libraries 4-7): √
< 40% | – | CC(C)[C@@H](C(=O)NCc1ccccc1)n1cc(COc2ccc3nc(S(N)(=O)=O)sc3c2)nn1 [DHK126] | –
– | < 40% | NS(=O)(=O)c1nc2ccc(OCc3cn([C@@H](Cc4ccccc4)C(=O)NCC4CC4)nn3)cc2s1 [DHK-2-64] | –
< 40% | – | CC1CCCN(C(=O)C(C(C)C)n2cc(CNC(=O)c3ccc(S(N)(=O)=O)cc3)nn2)C1 (stereo not shown) [DHK44] | –
– | < 40% | CC(C)[C@@H](C(=O)NCCCO)n1cc(COc2ccc3nc(S(N)(=O)=O)sc3c2)nn1 [DHK-2-38] | –
– | < 40% | NS(=O)(=O)c1ccc(-c2cn([C@@H](Cc3ccccc3)C(=O)NCCCO)nn2)cc1 [DHK-2-14] | –
< 40% | – | CC(C)[C@@H](C(=O)NC1CCCCC1)n1cc(CNC(=O)c2ccc(S(N)(=O)=O)cc2)nn1 [DHK50] | –
– | < 40% | CC(C)[C@@H](C(=O)N(C)Cc1ccccc1)n1cc(COc2ccc3nc(S(N)(=O)=O)sc3c2)nn1 [DHK-2-26] | –
– | < 40% | COC(=O)C(C)NC(=O)[C@H](C(C)C)n1cc(COc2ccc3nc(S(N)(=O)=O)sc3c2)nn1 (stereo partly shown) [DHK-2-34] | –
< 40% | – | CC(C)[C@@H](C(=O)NCc1ccccc1)n1cc(CNC(=O)c2ccc(S(N)(=O)=O)cc2)nn1 [DHK52] | –
– | < 40% | NS(=O)(=O)c1nc2ccc(OCc3cn([C@@H](Cc4ccccc4)C(=O)N4CCC[C@@H]4CO)nn3)cc2s1 [DHK-2-57] | –
– | < 40% | NS(=O)(=O)c1ccc(-c2cn([C@@H](Cc3ccccc3)C(=O)NCc3ccccn3)nn2)cc1 [DHK-2-11] | –
< 40% | – | NS(=O)(=O)c1ccc(C(=O)NCc2cn(-c3cccc(C(=O)NN4CCOCC4)c3)nn2)cc1 [DHK39] | –
< 40% | – | CC(C)[C@@H](C(=O)NC1CCCCC1)n1cc(COc2ccc3nc(S(N)(=O)=O)sc3c2)nn1 [DHK124] | –
< 40% | – | CC(C)(C)c1cc(C(=O)Cn2cc(COc3ccc4nc(S(N)(=O)=O)sc4c3)nn2)cc(C(C)(C)C)c1O [DHK132] | –
< 40% | – | NS(=O)(=O)c1nc2ccc(OCc3cn(C4CCN(S(=O)(=O)/C=C/c5ccccc5)CC4)nn3)cc2s1 [DHK143] | –
– | < 40% | CCOC(=O)[C@@H](NC(=O)[C@H](Cc1ccccc1)n1cc(-c2ccc(S(N)(=O)=O)cc2)nn1)C(C)C [DHK-2-9] | –
< 40% | – | CC(C)[C@@H](C(=O)Nc1ccc(-c2ccccc2)cc1)n1cc(CNC(=O)c2ccc(S(N)(=O)=O)cc2)nn1 [DHK61] | –
< 40% | – | NS(=O)(=O)c1ccc(C(=O)NCc2cn(CC(=O)NC(Cc3cnc[nH]3)C(=O)O)nn2)cc1 (stereo not shown) [DHK92] | –
< 40% | – | COC(=O)C(Cc1ccc(C(=O)O)cc1)n1cc(COc2ccc3nc(S(N)(=O)=O)sc3c2)nn1 (stereo not shown) [DHK129] | –
– | < 40% | CCOC(=O)CCN(Cc1ccco1)C(=O)[C@H](Cc1ccccc1)n1cc(COc2ccc3nc(S(N)(=O)=O)sc3c2)nn1 [DHK-2-67] | –

SMILES | inhibition at 1 µM (CA-IX [2]; [3]) | inhibition at 1 µM (CA-IX [2]; [4]) | other results
C=CC1C[N@@]2CCC1CC2[C@@H](c1ccnc2ccc(OC)cc12)n1cc(CNC(=O)c2ccc(S(N)(=O)=O)cc2)nn1 (stereo partly shown) [DHK87] | < 40% | – | –
